Results published in patent publication US20120129892A1, “NOVEL PHARMACEUTICALLY ACCEPTABLE SALTS OF 4-(1H-IMIDAZOL-4-[…])PYRIDINE AND THEIR THERAPEUTICAL USES” (BIOPROJET, priority 2009, published 2012).
Where a name gives a salt, the structure may show the parent alone. Read-outs that look alike come from different tables or passages of the source.

How the values were obtained:
H3R in brain [1] = target: H3R in brain (Mus musculus, UniProt P58406); conditions: mice, oral, immethridine base and salts at 0.3 mg/kg, imetit: maximal reduction
human HMT = human HMT (Homo sapiens, UniProt P50135); assay: tele-methylation by HMT, cytosol of fresh human hepatocytes, Lineweaver-Burk analysis; conditions: pH 7.4, 20 μM (S)-adenosyl methionine
[2] = stability on heating at 80° C. during one week, HPLC analysis
[3] = hygroscopy: water uptake in a water-saturated atmosphere at room temperature; type: physicochemical; conditions: a few days in water-saturated atmosphere at room temperature, listed as immethridine dioxalate
[4] = target: recombinant human cytochrome P450 2D6 (Homo sapiens, UniProt P10635); assay: inhibition of recombinant human cytochrome P450 2D6; type: in vitro ADME; conditions: read-out: IC50 at 2D6 isoform
Text: (§1) These values are over 3 orders of magnitude higher than the expected plasma or tissue concentrations at therapeutic dosage.

[5] = sleep EEG recording in rats (24-hr recordings); type: in vivo; conditions: for tolerance to sleep-promoting / hypnotic effect: repeated o.d. administration over several days
Text: While the sleep-promoting activity of several other H3R agonists has been previously described (Lin et al., Brain Res., 1990, 523, 325-330; Monti et al., Neuropsychopharmacology, 1996, 15, 31-35), much higher dosages—by two to three orders of magnitude—were required to obtain this effect.
This is in contrast with the long-lasting disorders of circadian rhythms, namely the relative insomnia, which occur at the interruption of a repeated treatment with benzodiazepines or imidazopyridines such as Zolpidem.

H3R in brain [6] = assay: reduction of brain tele methylhistamine levels after oral dosing (ED50)
[7] = AUCs of unchanged drug and metabolite in rat brain and blood; conditions: Sprague-Dawley, po, 1 mg/kg
H3R = target: T1, H3R (Rattus norvegicus, UniProt Q9QYN8); conditions: rats, intraperitoneal, doses as high as 10 mg/kg necessary (Celanire et al.); cited from earlier work
T1 construct: host or cells: living rats (brain)

hERG potassium channel [8] = target: T2, hERG potassium channel (Homo sapiens, UniProt Q12809); assay: potassium hERG current, functional patch clamp assay in HEK-293 cells; conditions: concentrations up to 10 μM
hERG potassium channel [9] = target: T2, hERG potassium channel; assay: [3H]dofetidide binding assay, HEK-293 cells stably expressing hERG; conditions: concentrations up to 10 μM
[10] = target: recombinant human cytochrome P450 3A4 (Homo sapiens, UniProt P08684); assay: inhibition of recombinant human cytochrome P450 3A4; type: in vitro ADME; conditions: read-out: IC50 at 3A4 isoform
Text: as §1

[11] = target: recombinant human cytochrome P450 2C9 (Homo sapiens, UniProt P11712); assay: inhibition of recombinant human cytochrome P450 2C9; type: in vitro ADME; conditions: read-out: IC50 at 2C9 isoform
Text: as §1

[12] = tested on: human CYP 450 isoforms (3A4, 2C9, 2E1, 2B6) and UGTs; assay: induction of CYP 450 isoforms and UGTs in human hepatocytes; type: in vitro ADME; conditions: concentrations over 3 orders of magnitude higher than expected therapeutic concentrations
human H3R = human H3R (Homo sapiens, UniProt Q9Y5N1); assay: β arrestin translocation; type: cell-based
[13] = general tolerance in rodents; type: in vivo; conditions: doses as high as 100 mg/kg
Procedure: (§2) Accordingly, rats treated orally for 18 days by 20 mg/kg o.d.

[14] = withdrawal symptoms after interruption of repeated Zolpidem treatment in rats; type: in vivo; conditions: 18 days 20 mg/kg o.d. oral Zolpidem followed by 0.3 mg/kg, p.o.
Procedure: as §2

recombinant hH3R = target: T3, recombinant hH3R (Homo sapiens, UniProt Q9Y5N1); assay: [35S]GTPγS binding activation on recombinant hH3R expressed in HEK 293 cells; type: biochemical
T3 construct: expressed in transfected cells; host or cells: HEK 293 cells

[15] = AUCs of unchanged drug and tele methylated derivative in mouse brain and blood; type: in vivo; conditions: 1 mg/kg, p.o.

Sequence of H3R in brain (Mus musculus, UniProt P58406) (P58406 whole entry): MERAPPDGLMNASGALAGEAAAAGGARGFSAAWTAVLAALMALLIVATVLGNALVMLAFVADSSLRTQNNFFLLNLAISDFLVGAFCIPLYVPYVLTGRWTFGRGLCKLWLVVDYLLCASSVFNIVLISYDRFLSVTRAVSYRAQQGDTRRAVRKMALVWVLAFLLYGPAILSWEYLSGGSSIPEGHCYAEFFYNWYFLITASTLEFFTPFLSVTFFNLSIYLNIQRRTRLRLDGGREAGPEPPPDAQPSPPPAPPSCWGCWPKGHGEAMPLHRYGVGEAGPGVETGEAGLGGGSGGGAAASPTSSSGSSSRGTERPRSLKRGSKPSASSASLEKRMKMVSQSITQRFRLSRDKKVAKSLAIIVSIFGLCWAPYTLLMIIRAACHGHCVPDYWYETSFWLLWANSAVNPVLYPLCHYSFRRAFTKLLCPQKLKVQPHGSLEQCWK
T2 sequence (Q12809 whole entry): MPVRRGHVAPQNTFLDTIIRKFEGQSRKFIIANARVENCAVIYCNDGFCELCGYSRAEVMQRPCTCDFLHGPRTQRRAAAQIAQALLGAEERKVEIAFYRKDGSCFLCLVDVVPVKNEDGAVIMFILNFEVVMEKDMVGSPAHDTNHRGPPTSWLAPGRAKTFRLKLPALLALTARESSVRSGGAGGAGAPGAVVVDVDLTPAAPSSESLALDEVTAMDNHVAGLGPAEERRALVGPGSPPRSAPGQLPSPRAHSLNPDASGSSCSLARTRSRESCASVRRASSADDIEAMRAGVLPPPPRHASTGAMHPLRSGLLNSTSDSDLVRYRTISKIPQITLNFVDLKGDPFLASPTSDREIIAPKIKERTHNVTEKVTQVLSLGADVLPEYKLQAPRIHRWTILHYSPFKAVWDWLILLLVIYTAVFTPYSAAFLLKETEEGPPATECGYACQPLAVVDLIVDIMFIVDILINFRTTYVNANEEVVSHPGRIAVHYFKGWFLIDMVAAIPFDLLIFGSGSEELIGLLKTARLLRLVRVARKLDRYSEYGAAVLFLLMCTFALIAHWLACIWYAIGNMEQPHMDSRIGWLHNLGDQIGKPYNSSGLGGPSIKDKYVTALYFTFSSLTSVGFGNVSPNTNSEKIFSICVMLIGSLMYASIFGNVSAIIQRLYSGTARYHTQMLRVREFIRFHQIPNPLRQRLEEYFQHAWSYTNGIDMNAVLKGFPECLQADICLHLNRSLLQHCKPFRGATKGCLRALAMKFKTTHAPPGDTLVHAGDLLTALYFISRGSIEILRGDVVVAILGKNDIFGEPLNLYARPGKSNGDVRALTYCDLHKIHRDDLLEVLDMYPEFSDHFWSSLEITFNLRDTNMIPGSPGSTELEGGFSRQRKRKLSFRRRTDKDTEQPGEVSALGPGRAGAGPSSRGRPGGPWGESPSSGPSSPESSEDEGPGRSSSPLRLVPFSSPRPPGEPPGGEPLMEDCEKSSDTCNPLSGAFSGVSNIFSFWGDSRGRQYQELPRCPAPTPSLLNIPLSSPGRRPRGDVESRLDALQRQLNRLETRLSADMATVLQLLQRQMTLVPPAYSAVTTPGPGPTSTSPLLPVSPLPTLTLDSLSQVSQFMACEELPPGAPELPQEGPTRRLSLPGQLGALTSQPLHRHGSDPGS
Sequence of human HMT (P50135 whole entry): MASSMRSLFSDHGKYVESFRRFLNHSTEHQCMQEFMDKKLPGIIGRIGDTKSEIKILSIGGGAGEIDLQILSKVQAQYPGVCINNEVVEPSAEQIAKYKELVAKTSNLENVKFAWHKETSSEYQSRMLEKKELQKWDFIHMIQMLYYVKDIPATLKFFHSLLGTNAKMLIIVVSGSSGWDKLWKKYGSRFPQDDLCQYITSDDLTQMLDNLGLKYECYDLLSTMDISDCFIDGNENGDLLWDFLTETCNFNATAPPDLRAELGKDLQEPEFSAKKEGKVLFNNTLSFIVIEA
Sequence of human H3R (Q9Y5N1 whole entry): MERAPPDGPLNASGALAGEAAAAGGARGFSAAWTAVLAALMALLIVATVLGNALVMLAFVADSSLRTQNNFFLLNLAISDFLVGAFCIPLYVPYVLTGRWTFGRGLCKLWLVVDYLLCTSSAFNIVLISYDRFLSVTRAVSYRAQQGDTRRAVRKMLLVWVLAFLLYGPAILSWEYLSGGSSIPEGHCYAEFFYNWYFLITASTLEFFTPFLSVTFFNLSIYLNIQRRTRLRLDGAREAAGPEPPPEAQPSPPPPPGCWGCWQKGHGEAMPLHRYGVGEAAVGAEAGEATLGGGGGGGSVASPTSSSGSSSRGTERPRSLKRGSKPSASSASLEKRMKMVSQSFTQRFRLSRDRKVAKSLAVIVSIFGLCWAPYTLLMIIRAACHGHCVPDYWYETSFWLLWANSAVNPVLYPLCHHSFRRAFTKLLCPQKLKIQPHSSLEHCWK
T3 sequence (Q9Y5N1 whole entry): as above
Sequence of recombinant human cytochrome P450 2C9 (P11712 whole entry, canonical isoform): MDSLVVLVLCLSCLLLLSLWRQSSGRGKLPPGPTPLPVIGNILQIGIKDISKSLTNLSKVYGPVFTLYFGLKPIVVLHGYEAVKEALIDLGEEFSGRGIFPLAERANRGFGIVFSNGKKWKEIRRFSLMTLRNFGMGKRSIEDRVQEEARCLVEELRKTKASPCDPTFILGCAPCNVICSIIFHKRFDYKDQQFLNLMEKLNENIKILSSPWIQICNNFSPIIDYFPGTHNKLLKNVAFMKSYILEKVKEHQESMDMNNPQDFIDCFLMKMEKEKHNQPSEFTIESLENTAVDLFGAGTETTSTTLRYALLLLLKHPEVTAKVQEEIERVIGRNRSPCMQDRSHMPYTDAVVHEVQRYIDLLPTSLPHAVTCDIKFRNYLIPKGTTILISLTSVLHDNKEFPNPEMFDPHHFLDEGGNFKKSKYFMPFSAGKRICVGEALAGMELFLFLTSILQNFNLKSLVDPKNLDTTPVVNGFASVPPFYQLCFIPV
Sequence of recombinant human cytochrome P450 3A4 (P08684 whole entry, canonical isoform): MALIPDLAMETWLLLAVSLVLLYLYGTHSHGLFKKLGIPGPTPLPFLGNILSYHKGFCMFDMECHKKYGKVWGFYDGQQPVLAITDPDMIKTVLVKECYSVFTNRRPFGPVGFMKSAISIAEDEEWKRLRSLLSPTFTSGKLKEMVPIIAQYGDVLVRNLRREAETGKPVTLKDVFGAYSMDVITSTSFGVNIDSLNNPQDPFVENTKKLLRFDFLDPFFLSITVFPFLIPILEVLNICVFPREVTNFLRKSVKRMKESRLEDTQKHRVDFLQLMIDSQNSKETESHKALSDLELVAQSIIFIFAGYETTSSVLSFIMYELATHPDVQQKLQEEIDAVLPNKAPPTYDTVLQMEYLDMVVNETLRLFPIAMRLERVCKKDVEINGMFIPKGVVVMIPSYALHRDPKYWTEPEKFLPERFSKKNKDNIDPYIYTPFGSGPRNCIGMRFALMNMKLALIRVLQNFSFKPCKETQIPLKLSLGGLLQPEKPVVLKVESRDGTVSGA
T1 sequence (Q9QYN8 whole entry): as the sequence (P58406 whole entry) above, with A15T, T286A, G290A, H387R, V389I counted along it
Sequence of recombinant human cytochrome P450 2D6 (P10635 whole entry, canonical isoform): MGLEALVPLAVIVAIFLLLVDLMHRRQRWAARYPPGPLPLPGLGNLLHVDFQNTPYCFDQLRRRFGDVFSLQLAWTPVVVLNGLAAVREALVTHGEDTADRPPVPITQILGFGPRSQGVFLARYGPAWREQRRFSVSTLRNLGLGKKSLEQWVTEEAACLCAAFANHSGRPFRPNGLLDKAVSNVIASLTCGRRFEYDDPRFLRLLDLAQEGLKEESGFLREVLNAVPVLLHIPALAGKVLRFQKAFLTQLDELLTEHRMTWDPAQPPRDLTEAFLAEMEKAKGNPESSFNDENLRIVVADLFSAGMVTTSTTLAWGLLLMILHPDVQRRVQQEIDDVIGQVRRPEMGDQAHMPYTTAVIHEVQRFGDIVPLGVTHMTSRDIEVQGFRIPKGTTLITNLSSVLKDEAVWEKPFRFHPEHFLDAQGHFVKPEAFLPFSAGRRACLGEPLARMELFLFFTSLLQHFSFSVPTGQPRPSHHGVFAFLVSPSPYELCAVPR

c1cc(Cc2c[nH]cn2)ccn1 [BP1.5375 (alpha keto-glutarate salt)]
t-methylhistamine brain level variation vs. control, mean (%) (H3R in brain [1]; listed as Immethridine alpha-ketoglutarate, 0.3 mg/kg): −46.1%

c1cc(Cc2c[nH]cn2)ccn1 [BP1.5375 (dibromhydrate salt)]
Vm (human HMT): 0.004 µM/min

c1cc(Cc2cnc[nH]2)ccn1 [BP1.5375 (dioxalate salt), 4-(1H-imidazol-4-ylmethyl)-pyridine dioxalate]
stability when heated ([2]; listed as immethridine dioxalate, dioxalate): no apparent degradation
water uptake, % of weight [3]: 13-15%

c1cc(Cc2c[nH]cn2)ccn1 [BP1.5375 (ditoluenesulfonate salt)]
t-methylhistamine brain level variation vs. control, mean (%) (H3R in brain [1]; listed as Immethridine di p-toluene sulfonate, 0.3 mg/kg): −41.6%
Vm (human HMT): 0.004 µM/min

c1cc(Cc2cnc[nH]2)ccn1 [BP1.5375, 4-(1H-imidazol-4-yl-methyl)-pyridine]
IC50 [4]: ≥ 100 µM
rebound / sleep pattern upon interruption of repeated treatment ([5]; after interruption of 6-day treatment with 0.3 mg/kg, p.o.): does not give rise to a rebound phenomenon
tolerance to sleep-promoting / hypnotic effect [5]: does not diminish
duration of deep SWS (slow wave sleep) period ([5]; same very low dosages, administered 30 min before start of light-on period): enhanced significantly
ED50, reduction of levels of tele methylhistamine in brain (H3R in brain [6]; given orally to rats or mice): ~30 micrograms/kg
tele methylhistamine response upon repeated administration (H3R in brain [6]; repeated administration over 7 days): maintained
Kp [7]: 2.6
decrease of histamine in brain (H3R): modestly decrease histamine in brain
inhibition of potassium hERG current (hERG potassium channel [8]): not to inhibit
inhibition of [3H]dofetidide binding (hERG potassium channel [9]): not to inhibit
IC50 [10]: 29.3 µM
t-methylhistamine brain level variation vs. control, mean (%) (H3R in brain [1]; 0.3 mg/kg): −42.1%
stability when heated ([2]; listed as immethridine): darkens
IC50 [11]: 3.1 µM
induction of CYP 450 isoforms (3A4, 2C9, 2E1, 2B6) and UGTs [12]: not induced
EC50 (human H3R): ~0.017 µM
intrinsic activity compared to histamine (human H3R; β arrestin translocation): 0.5
apparent toxicity sign [13]: does not induce any apparent toxicity sign
occurrence of withdrawal symptoms after Zolpidem interruption [14]: prevents the occurrence of withdrawal symptoms
EC50 (recombinant hH3R): ~0.001 µM
intrinsic activity compared with histamine (recombinant hH3R; [35S]GTPγS binding, hH3R): 0.75
ratio of brain/blood AUCs [15]: close to unit

c1cc(Cc2cnc[nH]2)ccn1 [Immethridine dihydrochloride]
t-methylhistamine brain level variation vs. control, mean (%) (H3R in brain [1]): −37.0%

CS(=O)(=O)O.CS(=O)(=O)O.c1cc(Cc2c[nH]cn2)ccn1 [Immethridine methane sulfonate]
t-methylhistamine brain level variation vs. control, mean (%) (H3R in brain [1]): −40.0%

Cc1ccc(-c2nc3ccc(C)cn3c2CC(=O)N(C)C)cc1 [Zolpidem, reference compound]
withdrawal symptoms upon interruption of repeated treatment ([5]; after interruption of 15-day treatment with 20 mg/kg, p.o.): increases in sleep onset latency, decrease in deep sleep
tolerance to sleep-promoting / hypnotic effect [5]: rapid development of tolerance
